Measured values: patent US20240279237A1, “FUSED BICYCLIC HETEROARYL COMPOUNDS USEFUL AS NLRP3 INHIBITORS” (Hoffmann-La Roche Inc., priority 2021, published 2024)

Target: T1, NLRP3 (Homo sapiens, UniProt Q96P20)
T1 construct: Seed THP-1 cells (25,000 cells/well) containing 1.0 μg/ml LPS in 40 μl of RPMI medium; host or cells: THP-1 cells
Experiment: THP-1 Cells Pyroptosis Assay
Format: cell-based
Conditions: THP-1 cells with 1.0 μg/ml LPS; compound 3 hours; nigericin 5 μM 1 hr; resazurin readout
How it was run: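 THP-1 cells in serum-free RPMI primed with LPS (1 μg/ml FAC), incubated with compound 3 h at 37 °C, then nigericin (5 μM FAC) for 1 h. Supernatant removed after spin; viability read by resazurin (100 μM FAC) reduction after a further 1-2 h at 37 °C.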

T1 sequence (Q96P20 whole entry): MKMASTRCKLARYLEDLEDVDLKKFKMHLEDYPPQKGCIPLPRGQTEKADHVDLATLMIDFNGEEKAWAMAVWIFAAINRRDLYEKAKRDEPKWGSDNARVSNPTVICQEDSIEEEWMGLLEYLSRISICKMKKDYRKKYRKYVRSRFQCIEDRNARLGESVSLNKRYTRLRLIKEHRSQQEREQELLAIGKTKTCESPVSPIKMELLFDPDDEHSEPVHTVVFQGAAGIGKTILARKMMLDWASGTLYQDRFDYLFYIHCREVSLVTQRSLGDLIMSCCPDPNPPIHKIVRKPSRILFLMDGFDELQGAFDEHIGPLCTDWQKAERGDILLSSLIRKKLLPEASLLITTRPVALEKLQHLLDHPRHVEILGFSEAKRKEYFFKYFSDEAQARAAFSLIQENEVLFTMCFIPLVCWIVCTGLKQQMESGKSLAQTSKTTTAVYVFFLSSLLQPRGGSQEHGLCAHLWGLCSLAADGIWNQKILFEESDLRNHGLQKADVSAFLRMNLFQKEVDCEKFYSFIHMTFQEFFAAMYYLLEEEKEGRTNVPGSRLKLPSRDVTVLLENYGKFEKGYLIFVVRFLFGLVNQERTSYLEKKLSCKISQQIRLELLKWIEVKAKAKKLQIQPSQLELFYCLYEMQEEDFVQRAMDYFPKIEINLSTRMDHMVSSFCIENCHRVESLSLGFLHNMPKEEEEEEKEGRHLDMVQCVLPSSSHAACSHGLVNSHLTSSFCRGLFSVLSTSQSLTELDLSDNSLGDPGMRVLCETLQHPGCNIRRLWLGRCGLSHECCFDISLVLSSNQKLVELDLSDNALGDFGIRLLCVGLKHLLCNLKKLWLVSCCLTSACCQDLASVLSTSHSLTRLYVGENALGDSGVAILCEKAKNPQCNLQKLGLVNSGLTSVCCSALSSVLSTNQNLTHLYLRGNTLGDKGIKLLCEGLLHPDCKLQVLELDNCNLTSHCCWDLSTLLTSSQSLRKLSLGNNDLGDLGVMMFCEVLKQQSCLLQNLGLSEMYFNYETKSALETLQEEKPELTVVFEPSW

SMILES | IC50 [nM]
Cc1cc(Cl)cc(O)c1-c1ccc2oc(N[C@@H]3CCC[C@H]3N(C)C)nc2n1 [Example 112, 5-Chloro-2-[2-[[(1R,2R)-2-(dimethylamino)cyclopentyl]amino]oxazolo[4,5-b]pyridin-5-yl]-3-methyl-phenol] | 6.6
CCN1CCC[C@@H](Nc2nc3nc(-c4c(C)cc(Cl)cc4O)cnc3o2)C1 [Example 113, 5-Chloro-2-[2-[[(3R)-1-ethyl-3-piperidyl]amino]oxazolo[4,5-b]pyrazin-5-yl]-3-methyl-phenol;2,2,2-trifluoroacetic acid] | 0.5
Cc1cc(C#N)cc(O)c1-c1ccc2oc(NC3CCCN4C[C@@H](O)CC34)nc2n1 (stereo partly drawn) [Example 115, 3-Hydroxy-5-methyl-4-[2-[[(2S)-2-hydroxy-1,2,3,5,6,7,8,8a-octahydroindolizin-8-yl]amino]oxazolo[4,5-b]pyridin-5-yl]benzonitrile;2,2,2-trifluoroacetic acid] | 48.5
CCN1CCC[C@@H](Nc2nc3nc(-c4c(C)cc(C(F)(F)F)cc4O)cc(N(C)C)c3o2)C1 [Example 116, 2-[7-(Dimethylamino)-2-[[(3R)-1-ethyl-3-piperidyl]amino]oxazolo[4,5-b]pyridin-5-yl]-3-methyl-5-(trifluoromethyl)phenol] | 6.9
CCN1CCC[C@@H](Nc2nc3nc(-c4c(C)cc(C(F)(F)F)cc4O)cc(C#N)c3o2)C1 [Example 117, 2-[[(3R)-1-Ethyl-3-piperidyl]amino]-5-[2-hydroxy-6-methyl-4 (trifluoromethyl)phenyl]-oxazolo[4,5-b]pyridine-7-carbonitrile] | 5.2
CCN1CCC[C@@H](Nc2nc3nc(-c4c(O)cccc4C#N)ccc3o2)C1 [Example 119, 2-[2-[[(3R)-1-Ethyl-3-piperidyl]amino]oxazolo[4,5-b]pyridin-5-yl]-3-hydroxy-benzonitrile] | 23
Cc1cc(C(F)(F)F)cc(O)c1-c1ccc2oc(NC34CCC(CC3)N(C)C4)nc2n1 [Example 120, 3-Methyl-2-[2-[(2-methyl-2-azabicyclo[2.2.2]octan-4-yl)amino]oxazolo[4,5-b]pyridin-5-yl]-5-(trifluoromethyl)phenol] | 108
Cc1cc(C(F)F)cc(O)c1-c1ccc2oc(N[C@@H]3CCCN(C)C3)nc2n1 [Example 121, 5-(Difluoromethyl)-3-methyl-2-[2-[[(3R)-1-methyl-3-piperidyl]amino]oxazolo[4,5-b]pyridin-5-yl]phenol] | 2.7
CCN1CCC[C@@H](Nc2nc3nc(-c4c(C)cc(C(F)F)cc4O)ccc3o2)C1 [Example 122, 5-(Difluoromethyl)-2-[2-[[(3R)-1-ethyl-3-piperidyl]amino]oxazolo[4,5-b]pyridin-5-yl]-3-methyl-phenol;2,2,2-trifluoroacetic acid] | 1
CCN1CCC[C@@H](Nc2nc3nc(-c4c(C)cc(C)cc4O)ccc3o2)C1 [Example 123, 2-[2-[[(3R)-1-Ethyl-3-piperidyl]amino]oxazolo[4,5-b]pyridin-5-yl]-3,5-dimethyl-phenol] | 0.7
CCN1CCC(O)C(Nc2nc3nc(-c4c(C)cc(Cl)cc4O)ccc3o2)C1 (stereo not shown) [Example 124, 3-[[5-(4-Chloro-2-hydroxy-6-methyl-phenyl)oxazolo[4,5-b]pyridin-2-yl]amino]-1-ethyl-piperidin-4-ol] | 53.8
CCN1CCC[C@@H](Nc2nc3nc(-c4c(C)cccc4O)ccc3o2)C1 [Example 125, 2-[2-[[(3R)-1-Ethyl-3-piperidyl]amino]oxazolo[4,5-b]pyridin-5-yl]-3-methyl-phenol] | 3
CN1CCC[C@@H](Nc2nc3nc(-c4c(O)cc(F)cc4C(F)(F)F)ccc3o2)C1 [Example 126, 5-Fluoro-2-[2-[[(3R)-1-methyl-3-piperidyl]amino]oxazolo[4,5-b]pyridin-5-yl]-3-(trifluoromethyl)phenol;2,2,2-trifluoroacetic acid] | 3.9
CCN1CCC[C@@H](Nc2nc3nc(-c4ccc(Cl)cc4O)c(Cl)cc3o2)C1 [Example 127, 5-Chloro-2-[6-Chloro-2-[[(3R)-1-ethyl-3-piperidyl]amino]oxazolo[4,5-b]pyridin-5-yl]phenol] | 20.6
Cc1cc(C)c(-c2ccc3oc(N[C@@H]4CCCN(C)C4)nc3n2)c(O)c1 [Example 128, 3,5-Dimethyl-2-[2-[[(3R)-1-methyl-3-piperidyl]amino]oxazolo[4,5-b]pyridin-5-yl]phenol;2,2,2-trifluoroacetic acid] | 1.8
CCN1CCC[C@@H](Nc2nc3nc(-c4c(O)cc(F)cc4Cl)ccc3o2)C1 [Example 129, 3-Chloro-2-[2-[[(3R)-1-ethyl-3-piperidyl]amino]oxazolo[4,5-b]pyridin-5-yl]-5-fluoro-phenol;2,2,2-trifluoroacetic acid] | 1.7
CCN1CCC[C@@H](Nc2nc3nc(-c4c(C)cc(OC(F)F)cc4O)ccc3o2)C1 [Example 130, 5-(Difluoromethoxy)-2-[2-[[(3R)-1-ethyl-3-piperidyl]amino]oxazolo[4,5-b]pyridin-5-yl]-3-methyl-phenol;2,2,2-trifluoroacetic acid] | 1.9
CCN1CCC(Nc2nc3nc(-c4c(C)cc(C(F)(F)F)cc4O)ccc3o2)C1 (stereo not shown) [Example 131, 2-[2-[(1-Ethylpyrrolidin-3-yl)amino]oxazolo[4,5-b]pyridin-5-yl]-3-methyl-5-(trifluoromethyl)phenol] | 9.6
CCN1CCC[C@@H](Nc2nc3nc(-c4c(O)cc(Cl)cc4Cl)ccc3o2)C1 [Example 132, 3,5-Dichloro-2-[2-[[(3R)-1-ethyl-3-piperidyl]amino]oxazolo[4,5-b]pyridin-5-yl]phenol;2,2,2-trifluoroacetic acid] | 0.7
CCN1CCC[C@@H](Nc2nc3nc(-c4ccc(C(F)(F)F)cc4O)c(F)cc3[nH]2)C1 [Example 133, 2-[2-[[(3R)-1-Ethyl-3-piperidyl]amino]-6-fluoro-1H-imidazo[4,5-b]pyridin-5-yl]-5-(trifluoromethyl)phenol] | 80.3
CCN1C[C@@H](O)C[C@@H](Nc2nc3nc(-c4c(C)cc(Cl)cc4O)ccc3o2)C1 [Example 134, (3S,5R)-5-[[5-(4-Chloro-2-hydroxy-6-methyl-phenyl)oxazolo[4,5-b]pyridin-2-yl]amino]-1-ethyl-piperidin-3-ol] | 1.9
CNC1(c2nc3nc(-c4c(C)cc(C(F)(F)F)cc4O)ccc3o2)CCOCC1 [Example 135, 3-Methyl-2-[2-[4-(methylamino)tetrahydropyran-4-yl]oxazolo[4,5-b]pyridin-5-yl]-5-(trifluoromethyl)phenol;2,2,2-trifluoroacetic acid] | 505
CCN1CCC[C@@H](Nc2nc3ccc(-c4c(C)cc(Cl)cc4O)nc3[nH]2)C1 [Example 136, 5-Chloro-2-[2-[[(3R)-1-ethyl-3-piperidyl]amino]-3H-imidazo[4,5-b]pyridin-5-yl]-3-methyl-phenol] | 1
CCN1CCC[C@@H](Nc2nc3nc(-c4c(C)cc(OC(F)(F)F)cc4O)ccc3o2)C1 [Example 137, 2-[2-[[(3R)-1-Ethyl-3-piperidyl]amino]oxazolo[4,5-b]pyridin-5-yl]-3-methyl-5-(trifluoromethoxy)phenol;2,2,2-trifluoroacetic acid] | 4.8
CCN1CCCC(c2nc3nc(-c4c(C)cc(C(F)(F)F)cc4O)ccc3o2)C1 (stereo not shown) [Example 138, 2-[2-(1-Ethyl-3-piperidyl)oxazolo[4,5-b]pyridin-5-yl]-3-methyl-5-(trifluoromethyl)phenol] | 234
